In US9388148B2, “Acylaminocycloalkyl compounds suitable for treating disorders that respond to modulation of dopamine D3 receptor” (AbbVie Deutschland GmbH & Co. KG, priority 2013, dated 2016):
pKi: −log10 of the molar value.

How the values were obtained:
[1] = molecular target: T1, human dopamine D3 receptors (Homo sapiens, UniProt P35462); experiment: Dopamine D3 receptor binding ([125I]-iodosulpride displacement); details: membranes of HEK-293 cells with human D3 receptors, 0.1 nM [125I]-iodosulpride
T1 construct: expressed in transfected cells; host or cells: HEK-293
T1 sequence (P35462 whole entry): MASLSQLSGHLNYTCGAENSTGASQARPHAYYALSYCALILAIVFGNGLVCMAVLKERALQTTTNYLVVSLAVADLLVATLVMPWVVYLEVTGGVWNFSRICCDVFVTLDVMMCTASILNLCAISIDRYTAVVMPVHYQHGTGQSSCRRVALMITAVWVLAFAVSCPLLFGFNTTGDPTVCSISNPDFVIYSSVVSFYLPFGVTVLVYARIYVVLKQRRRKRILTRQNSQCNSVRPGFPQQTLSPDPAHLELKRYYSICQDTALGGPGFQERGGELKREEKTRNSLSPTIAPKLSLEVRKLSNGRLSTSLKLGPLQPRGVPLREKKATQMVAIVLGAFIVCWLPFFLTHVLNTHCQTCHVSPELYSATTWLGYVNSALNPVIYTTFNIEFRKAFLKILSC
Experimental: (§1) The substance to be tested was either dissolved in methanol/Chremophor® (BASF SE) or in dimethyl sulfoxide and then diluted with water to the desired concentration.
(§2) Each assay mixture was run in triplicate. • The incubation buffer contained 50 mM tris, 120 mM NaCl, 5 mM KCl, 2 mM CaCl2, 2 mM MgCl2 and 0.1% bovine serum albumin, 10 μM quinolone and 0.1% ascorbic acid (prepared fresh daily). […] Each assay mixture was run in triplicate. • The incubation buffer contained 50 mM tris, 120 mM NaCl, 5 mM KCl, 2 mM CaCl2, 2 mM MgCl2 and 0.1% bovine serum albumin. The buffer was adjusted to pH 7.4 with HCl. c) Measurement and analysis: • After having been incubated at 25° C. for 60 minutes, the assay mixtures were filtered through a Whatman GF/B glass fiber filter under vacuum using a cell col-lecting device. The filters were transferred to scintillation viols using a filter transfer system. After 4 ml of Ultima Gold® (Packard) have been added, the samples were shaken for one hour and the radioactivity was then counted in a Beta-Counter (Packard, Tricarb 2000 or 2200CA).

[2] = molecular target: T2, human dopamine D2L receptors (long isoform) (Homo sapiens, UniProt P14416); experiment: Dopamine D2L receptor binding ([125I]iodospiperone displacement); details: selectivity ratio, human D2L vs human D3 binding
T2 construct: expressed in transfected cells; host or cells: HEK-293
T2 sequence (P14416 whole entry, canonical isoform): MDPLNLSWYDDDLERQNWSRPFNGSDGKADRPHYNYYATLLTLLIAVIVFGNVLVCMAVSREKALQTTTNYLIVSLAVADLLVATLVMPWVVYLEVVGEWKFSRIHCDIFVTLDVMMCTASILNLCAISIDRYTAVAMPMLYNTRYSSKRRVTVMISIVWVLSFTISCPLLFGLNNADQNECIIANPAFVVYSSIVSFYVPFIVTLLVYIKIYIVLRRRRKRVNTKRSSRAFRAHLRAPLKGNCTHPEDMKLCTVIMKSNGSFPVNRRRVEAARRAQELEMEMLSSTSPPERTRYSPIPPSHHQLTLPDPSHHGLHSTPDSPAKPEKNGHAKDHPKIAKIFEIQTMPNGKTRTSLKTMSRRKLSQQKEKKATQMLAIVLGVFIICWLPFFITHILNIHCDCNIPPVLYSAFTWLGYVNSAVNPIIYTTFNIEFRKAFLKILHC
Experimental: as §1, §2

[3] = Determination of the microsomal half-life / microsomal clearance; type: in vitro ADME; details: pH 7.4; human liver microsomes, 0.5 μM test substance, 0.25 mg protein/ml, NADPH, 37° C.; read-out: Human mCl (mikrosomal clearance)
Experimental: The metabolic stability of the compounds of the invention was determined in the following assay.
The test substances were incubated in a concentration of 0.5 μM as follows:
0.5 μM test substance are preincubated together with liver microsomes from different species (from rat, human or other species) (0.25 mg of microsomal protein/ml) in 0.05 M potassium phosphate buffer of pH 7.4 in microtiter plates at 37° C. for 5 min. The reaction is started by adding NADPH (1 mg/mL). After 0, 5, 10, 15, 20 and 30 min, 50 μl aliquots are removed, and the reaction is immediately stopped and cooled with the same volume of acetonitrile. The samples are frozen until analyzed. The remaining concentration of undegraded test substance is determined by MSMS. The half-life (T1/2) is determined from the gradient of the signal of test substance/unit time plot, it being possible to calculate the half-life of the test substance, assuming first order kinetics, from the decrease in the concentration of the compound with time. The microsomal clearance (mC1) is calculated from mC1=1n2/T1/2/(content of microsomal protein in mg/ml)×1000 [ml/min/mg] (modified from references: Di, The Society for Biomoleculur Screening, 2003, 453-462; Obach, DMD, 1999 vol 27. N 11, 1350-1359).

Structure (SMILES) | pKi [1] | D2/D3, Ki (D2L)/Ki (D3) [2] | microsomal CLint at 0.5 μM [3] [µL/min/mg]
CC(C)(C)c1nc(C2CCC2)cc(N2CCN(CC[C@H]3C[C@H](NC(=O)[C@H]4C[C@H](O)C4)C3)CC2)n1.O=C(O)C(F)(F)F [Compound 39, trans-N-[trans-3-[2-[4-(2-tert-butyl-6-cyclobutyl-pyrimidin-4-yl)piperazin-1-yl]ethyl]cyclobutyl]-3-hydroxy-cyclobutanecarboxamide; 2,2,2-trifluoroacetic acid] | – | +++ (+++ >50) | < 20
CC(C)c1cc(N2CCN(CCC3CC(NC(=O)[C@H]4CC[C@H](O)CC4)C3)C[C@@H]2C)nc(C(C)(C)C)n1 (stereo partly drawn) [Compound 42, N-[3-[2-[(3S)-4-(2-tert-butyl-6-isopropyl-pyrimidin-4-yl)-3-methyl-piperazin-1-yl]ethyl]cyclobutyl]-trans-4-hydroxy-cyclohexanecarboxamide] | > 8.00 | +++ (+++ >50) | –
CC(C)c1cc(N2CCN(CC[C@H]3CC[C@@H](NC(=O)[C@H]4CC[C@H](O)CC4)CC3)CC2)nc(C(C)(C)C)n1 [Compound 43, Cis-N-[4-[2-[4-(2 tert-butyl-6-isopropyl-pyrimidin-4-yl)piperazin-1-yl]ethyl]cyclohexyl]-trans-4-hydroxy-cyclohexanecarboxamide] | > 8.00 | +++ (+++ >50) | –
C[C@H]1CN(CC[C@H]2CC[C@@H](NC(=O)[C@H]3CC[C@H](O)CC3)CC2)CCN1c1cc(C(F)F)nc(C(C)(C)C)n1 [Compound 44, Cis-N-[4-[2-[(3S)-4-[2-tert-butyl-6-(difluoromethyl)pyrimidin-4-yl]-3-methyl-piperazin-1-yl]ethyl]cyclohexyl]-trans-4-hydroxy-cyclohexanecarboxamide] | > 8.00 | +++ (+++ >50) | –
CC(C)c1cc(N2CCN(CCC3CC[C@H](NC(=O)[C@H]4CC[C@H](O)CC4)C3)C[C@@H]2C)nc(C(C)(C)C)n1 (stereo partly drawn) [Compound 45, Trans-N-[(1S)-3-[2-[(3S)-4-(2-tert-butyl-6-isopropyl-pyrimidin-4-yl)-3-methyl-piperazin-1-yl]ethyl]cyclopentyl]-4-hydroxy-cyclohexanecarboxamide] | > 8.00 | +++ (+++ >50) | –
CC(C)c1cc(N2CCN(CCC3CCC(NC(=O)[C@H]4CC[C@H](O)CC4)CC3)C[C@@H]2C)nc(C(C)(C)C)n1 (stereo partly drawn) [Compound 46, Trans-N-[4-[2-[(3S)-4-(2-tert-butyl-6-isopropyl-pyrimidin-4-yl)-3-methyl-piperazin-1-yl]ethyl]cyclohexyl]-4-hydroxy-cyclohexanecarboxamide] | > 8.00 | +++ (+++ >50) | –
CC(C)c1cc(N2CCN(CCC3CCC(NC(=O)[C@H]4C[C@H](O)C4)CC3)C[C@@H]2C)nc(C(C)(C)C)n1 (stereo partly drawn) [Compound 48, Trans-N-[4-[2-[(3S)-4-(2-tert-butyl-6-isopropyl-pyrimidin-4-yl)-3-methyl-piperazin-1-yl]ethyl]cyclohexyl]-3-hydroxycyclobutanecarboxamide] | > 8.00 | +++ (+++ >50) | –

Next, values leading:

pKi [1] | D2/D3, Ki (D2L)/Ki (D3) [2] | microsomal CLint at 0.5 μM [3] [µL/min/mg] | Structure (SMILES)
> 8.00 | +++ (+++ >50) | – | CO[C@H]1C[C@H](C(=O)NC2CCC(CCN3CCN(c4cc(C(C)C)nc(C(C)(C)C)n4)CC3)CC2)C1 (relative stereo) [Compound 49, Trans-N-[4-[2-[4-(2-tert-butyl-6-isopropyl-pyrimidin-4-yl)-piperazin-1-yl]ethyl]cyclohexyl]-3-methoxy-cyclobutanecarboxamide]
> 8.00 | +++ (+++ >50) | – | CC(C)c1cc(N2CCN(CCC3CCC(NC(=O)[C@H]4C[C@H](O)C4)CC3)CC2)nc(C(C)(C)C)n1 (relative stereo) [Compound 50, Trans-N-[4-[2-[4-(2-tert-butyl-6-isopropyl-pyrimidin-4-yl)-piperazin-1-yl]ethyl]cyclohexyl]-3-hydroxy-cyclobutanecarboxamide]
> 8.00 | +++ (+++ >50) | – | CC(C)c1cc(N2CCN(CC[C@H]3CC[C@H](NC(=O)[C@H]4CC[C@H](O)CC4)CC3)C[C@@H]2C)nc(C(C)(C)C)n1 [Compound 41, Trans-N-[4-[2-[(3S)-4-(2-tert-butyl-6-isopropyl-pyrimidin-4-yl)-3-methyl-piperazin-1-yl]ethyl]cyclohexyl]-trans-4-hydroxy-cyclohexanecarboxamide]
